Test results: article PMC10108347, “Heterobifunctional Ligase Recruiters Enable pan-Degradation of Inhibitor of Apoptosis Proteins” (Journal of Medicinal Chemistry, 2023)
Entries after “also recorded” stand apart in the source; their conditions may differ. Like-named read-outs stand apart in the source and are kept apart here.

Tests used:
[1] = target: T1, plasma protein (HSA column) (Homo sapiens, UniProt P02768); test: Plasma protein binding estimated by HPLC on a […] HSA column; assay type: in vitro ADME; settings: CHIRALPAK HSA column (50 × 3 mm, 5 μm), estimated by an HPLC-based method, read-out: PPB (plasma protein binding) (converted)
T1 construct: purchased
T1 sequence (P02768 25-609): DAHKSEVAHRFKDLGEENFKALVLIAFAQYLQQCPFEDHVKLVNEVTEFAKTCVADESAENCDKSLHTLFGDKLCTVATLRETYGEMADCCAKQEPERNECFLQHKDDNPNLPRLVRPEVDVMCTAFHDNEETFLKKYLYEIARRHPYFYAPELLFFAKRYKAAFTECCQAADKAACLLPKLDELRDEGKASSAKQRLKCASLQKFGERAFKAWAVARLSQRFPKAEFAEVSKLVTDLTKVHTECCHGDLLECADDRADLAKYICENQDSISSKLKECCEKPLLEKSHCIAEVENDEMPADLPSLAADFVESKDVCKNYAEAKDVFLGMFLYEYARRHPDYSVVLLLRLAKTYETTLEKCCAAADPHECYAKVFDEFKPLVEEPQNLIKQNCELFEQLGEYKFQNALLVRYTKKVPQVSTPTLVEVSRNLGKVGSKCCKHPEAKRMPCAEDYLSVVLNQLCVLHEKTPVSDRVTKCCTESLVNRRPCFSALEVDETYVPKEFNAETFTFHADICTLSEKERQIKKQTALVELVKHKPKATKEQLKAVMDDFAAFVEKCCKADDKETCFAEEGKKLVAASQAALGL
Description: Plasma protein binding (% PPB) was estimated by correlating the logarithmic retention times of the analytes on a […] HSA 50 × 3 mm, 5 μm column with the literature-known % PPB values (converted into log K values) of the following drugs: warfarin, ketoprofen, budesonide, nizatidine, indomethacin, acetylsalicylic acid, carbamazepine, piroxicam, nicardipine, and cimetidine (for details, see Valko et al.).[67] The samples were dissolved in MeCN/DMSO 9:1 to achieve a final concentration of 0.5 mg/mL. Mobile phase A was 50 mM ammonium acetate adjusted to pH 7.4 with ammonia solution, while mobile phase B was iPrOH. The flow rate was set to 1.0 mL/min, the UV detector was set to 254 nm, and the column temperature was kept at 30 °C. After injecting 2 μL of the sample, a linear gradient from 100% A to 30% iPrOH in 5.4 min was applied. From 5.4 to 18 min, 30% iPrOH was kept, followed by switching back to 100% A in 1.0 min and a re-equilibration time of 6 min. With the aid of the calibration line (R^2 = 0.96), the log K values of new substances were calculated and converted to their % PPB values.

IKZF3 = test: Immunoblotting (western blot) quantification of IKZF3 levels in MM.1S cells; settings: for %remaining protein IKZF3: 16 h treatment at 0.1 μM, normalized to loading control and DMSO
Description: (§3) To evaluate the capability of our panel of hetero-PROTACs for E3 ligase degradation, VHL19, VHL30, CRBN, cIAP1, cIAP2, and XIAP levels were quantified by western blot analyses. […] SDS-PAGE was performed, and proteins were then transferred onto PVDF membranes. Blotted membranes were blocked with 5% milk in Tris-buffered saline/Tween20 (TBST). Primary antibodies were diluted in 5% BSA in TBST, and incubations were performed overnight at 4 °C. Secondary HRP-conjugated antibodies diluted in 5% milk were incubated for 1 h at room temperature. Detection of proteins on PVDF was carried out using the WesternBright ECL HRP substrate or the WesternBright Sirius HRP substrate (Advansta, San Jose, USA) and imaged with LAS 4000× (Fujifilm). Membranes were subjected to 10 min incubation with Restore Western Blot Stripping Buffer (Thermo Fisher Scientific, Waltham, USA), followed by TBST washes. After brief re-activation with methanol, the membranes were blocked, and further probing of proteins was carried out.
(§4) Quantification of blots was performed using ImageJ software (National Institutes of Health).

[2] = Log D7.4 measurement by chromatographic (fast-gradient HPLC) method; settings: pH 7.4
Description: The system was calibrated by plotting the retention times of six different drugs (atenolol, metoprolol, labetalol, diltiazem, triphenylene, and permethrin) versus their literature-known log D7.4 in a calibration line (R^2 = 0.99). Subsequently, the mean retention times of the analytes were taken to calculate their log D7.4 values with the aid of the calibration line. At least two independent measurements of each analyte were performed.

cIAP1 = cIAP1 (Homo sapiens, UniProt Q13490); test: Immunoblotting (western blot) quantification of cIAP1 levels in MM.1S cells; settings: MM1.S, 16 h, read-out: %remaining protein cIAP1, MM.1S cells, 16 h treatment at 0.1 μM, normalized to loading control and DMSO
Sequence of cIAP1 (Q13490 whole entry): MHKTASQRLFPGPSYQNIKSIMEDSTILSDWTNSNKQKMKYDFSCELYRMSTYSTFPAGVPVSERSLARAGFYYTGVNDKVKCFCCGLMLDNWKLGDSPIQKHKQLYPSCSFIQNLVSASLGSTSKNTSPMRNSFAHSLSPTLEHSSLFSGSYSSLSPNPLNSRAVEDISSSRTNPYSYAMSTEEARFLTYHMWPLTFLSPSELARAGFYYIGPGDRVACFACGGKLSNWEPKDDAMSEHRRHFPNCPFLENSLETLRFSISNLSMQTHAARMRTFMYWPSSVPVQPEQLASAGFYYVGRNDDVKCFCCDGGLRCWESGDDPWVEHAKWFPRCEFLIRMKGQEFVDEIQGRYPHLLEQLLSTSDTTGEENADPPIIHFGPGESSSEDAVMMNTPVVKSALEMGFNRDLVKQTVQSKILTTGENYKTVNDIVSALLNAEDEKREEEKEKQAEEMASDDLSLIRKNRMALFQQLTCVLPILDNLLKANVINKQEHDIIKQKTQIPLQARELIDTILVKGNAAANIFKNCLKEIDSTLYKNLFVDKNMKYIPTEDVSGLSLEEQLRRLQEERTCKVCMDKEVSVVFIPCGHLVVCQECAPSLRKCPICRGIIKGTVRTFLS
Description: as §3, §4

[3] = system: IAPs (cIAP1, cIAP2, XIAP); test: Immunoblotting of IAPs in MM.1S cells, overall degradation profile, time course and washout; assay type: cell-based; settings: 16 h, western blot, concentration (10 nM to 1 μM)
Description: Next, we examined the persistence of IAP degradation in MM.1S cells after a single exposure to 1 μM of 9 and subsequent removal of the compound. […] The reliance on CRL2^VHL was assessed with a neddylation inhibitor MLN4924, which blocks the activity of CRLs (Figure S13A).

CRBN = CRBN (Homo sapiens, UniProt Q96SW2); test: Immunoblotting (western blot) quantification of CRBN levels in MM.1S cells; settings: MM1.S, 16 h, read-out: %remaining protein CRBN
Sequence of CRBN (Q96SW2 whole entry): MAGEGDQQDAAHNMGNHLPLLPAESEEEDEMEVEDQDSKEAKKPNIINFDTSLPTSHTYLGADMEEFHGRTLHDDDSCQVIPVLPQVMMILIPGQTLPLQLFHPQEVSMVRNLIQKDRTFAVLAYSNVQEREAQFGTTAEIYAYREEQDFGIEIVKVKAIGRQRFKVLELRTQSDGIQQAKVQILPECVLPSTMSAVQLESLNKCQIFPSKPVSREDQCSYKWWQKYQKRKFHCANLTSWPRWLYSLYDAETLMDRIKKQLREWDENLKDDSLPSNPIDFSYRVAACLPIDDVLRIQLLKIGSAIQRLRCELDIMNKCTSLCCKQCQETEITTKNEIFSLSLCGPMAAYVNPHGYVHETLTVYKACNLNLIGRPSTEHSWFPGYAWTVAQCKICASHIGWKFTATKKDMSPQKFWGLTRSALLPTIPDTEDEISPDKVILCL
Description: as §3, §4

XIAP = XIAP (Homo sapiens, UniProt P98170); test: Immunoblotting (western blot) quantification of XIAP levels in MM.1S cells; settings: 16 h; for remaining activity at 0.1 µM: MM1.S, read-out: %remaining protein XIAP, MM.1S cells, 16 h treatment at 0.1 μM, normalized to loading control and DMSO
Sequence of XIAP (P98170 whole entry): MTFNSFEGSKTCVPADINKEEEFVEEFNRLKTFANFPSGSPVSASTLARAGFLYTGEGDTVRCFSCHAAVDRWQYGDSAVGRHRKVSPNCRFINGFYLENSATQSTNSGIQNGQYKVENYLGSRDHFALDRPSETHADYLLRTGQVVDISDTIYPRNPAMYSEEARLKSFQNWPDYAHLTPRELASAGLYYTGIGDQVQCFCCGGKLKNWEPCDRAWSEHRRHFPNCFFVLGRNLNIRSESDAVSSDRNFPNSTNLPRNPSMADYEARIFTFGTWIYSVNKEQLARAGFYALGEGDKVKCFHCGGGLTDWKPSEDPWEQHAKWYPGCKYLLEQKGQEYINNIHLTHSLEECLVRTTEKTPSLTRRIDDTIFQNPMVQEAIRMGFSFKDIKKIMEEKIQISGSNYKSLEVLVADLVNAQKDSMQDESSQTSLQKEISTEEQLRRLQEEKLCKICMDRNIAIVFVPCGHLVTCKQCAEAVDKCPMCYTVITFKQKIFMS

cIAP2 = cIAP2 (Homo sapiens, UniProt Q13489); test: Immunoblotting (western blot) quantification of cIAP2 levels in MM.1S cells; settings: for remaining activity at 0.1 µM: MM1.S, read-out: %remaining protein cIAP2, MM.1S cells, 16 h treatment at 0.1 μM, normalized to loading control and DMSO
Sequence of cIAP2 (Q13489 whole entry): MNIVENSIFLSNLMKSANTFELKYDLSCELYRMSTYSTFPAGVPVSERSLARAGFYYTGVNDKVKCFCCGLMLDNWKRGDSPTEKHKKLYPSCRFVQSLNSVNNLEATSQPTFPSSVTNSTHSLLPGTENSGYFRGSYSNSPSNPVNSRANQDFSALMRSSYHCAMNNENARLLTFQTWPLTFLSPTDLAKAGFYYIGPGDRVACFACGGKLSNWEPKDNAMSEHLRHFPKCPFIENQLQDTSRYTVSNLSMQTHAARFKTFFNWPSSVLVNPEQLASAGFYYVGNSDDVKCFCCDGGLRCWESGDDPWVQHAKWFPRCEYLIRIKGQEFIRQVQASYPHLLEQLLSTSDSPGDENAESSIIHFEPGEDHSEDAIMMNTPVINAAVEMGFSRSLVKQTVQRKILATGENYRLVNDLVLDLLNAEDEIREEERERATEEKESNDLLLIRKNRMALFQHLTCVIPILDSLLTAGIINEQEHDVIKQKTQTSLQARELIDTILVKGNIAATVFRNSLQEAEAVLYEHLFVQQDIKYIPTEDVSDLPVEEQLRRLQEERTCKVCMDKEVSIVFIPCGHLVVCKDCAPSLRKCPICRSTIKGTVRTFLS

SUDHL4 = test: CellTiter-Glo cell viability assay, SUDHL4; assay type: cell-based
Description: (§1) As TNF-α and related signaling cascades represent crucial factors for the single-agent activity of IAP-targeting compounds,[29],[38],[39],[55] the viability inhibition of sensitive cell lines was evaluated in the presence and absence of this inflammatory stimulus. […] These effects were independent of IAP baseline levels (Figure S16), which is in agreement with the previous studies of IAP antagonists.
(§2) Cells were seeded in 384-well plates with respective treatments, and plates were incubated at 37 °C for 96 h. Viability assays were performed with or without the addition of TNF-α at 1 ng/mL. The cell viability readout was measured using the CellTiter-Glo Luminescent Cell Viability Assay (Promega, Madison, USA) and measured with a Synergy LX Multi-Mode plate reader (BioTek, Vermont, USA). All conditions were normalized to the DMSO-treated control. Data represents the mean ± SD of biological triplicates.

HEL = test: CellTiter-Glo cell viability assay, HEL; assay type: cell-based
Description: as §1, §2

JJN3 = test: CellTiter-Glo cell viability assay, JJN3; assay type: cell-based
Description: as §1, §2

RPMI-8826 = test: CellTiter-Glo cell viability assay, RPMI-8826; assay type: cell-based
Description: as §1, §2

DB = test: CellTiter-Glo cell viability assay, DB; assay type: cell-based
Description: as §1, §2

NCI-H929 = test: CellTiter-Glo cell viability assay, NCI-H929; assay type: cell-based
Description: as §1, §2

SUDHL6 = test: CellTiter-Glo cell viability assay, SUDHL6; assay type: cell-based
Description: as §1, §2

MOLM13 = test: CellTiter-Glo cell viability assay, MOLM13; assay type: cell-based
Description: as §1, §2

K562 = test: CellTiter-Glo cell viability assay, K562; assay type: cell-based
Description: as §1, §2

Row | Compound | fraction unbound at 0.5 mg/mL [1] | %remaining protein IKZF3 (IKZF3) [%] | chromatographic logD [2] | remaining activity at 0.1 µM (cIAP1) [%] | IAP degradation profile (in words) [3] | remaining activity at 0.1 µM (CRBN) [%] | remaining activity at 0.1 µM (XIAP) [%] | remaining activity at 0.1 µM (cIAP2; 16 h) [%] | further results
1 | CN[C@@H](C)C(=O)N[C@H](C(=O)N1C[C@@H](Oc2cccc(OCCCCOCCCCNc3cccc4c3C(=O)N(C3CCC(=O)NC3=O)C4=O)c2)C[C@H]1C(=O)N[C@@H]1CCCc2ccccc21)C1CCCCC1 (stereo partly drawn) [PROTAC 22, (2S,4S)-1-((S)-2-Cyclohexyl-2-((S)-2-(methylamino)propanamido)acetyl)-4-(3-(4-(4-((2-(2,6-dioxopiperidin-3-yl)-1,3-dioxoisoindolin-4-yl)amino)butoxy)butoxy)phenoxy)-N-((R)-1,2,3,4-tetrahydronaphthalen-1-yl)pyrrolidine-2-carboxamide] | 0.04 | 61 | 4.9 | 3 | pronounced pan-IAP depletion | 77 | 2 | 7 | IKZF3 degradation (in words) (IKZF3; 16 h, 1 μM): substantial IKZF3 degradation at 1 μM; IKZF3 degraded (IKZF3; 16 h treatment, 0.1 μM): approximately 40%
2 | CN[C@@H](C)C(=O)N[C@H](C(=O)N1C[C@@H](Oc2cccc(OCCOCCOCCNc3cccc4c3C(=O)N(C3CCC(=O)NC3=O)C4=O)c2)C[C@H]1C(=O)N[C@@H]1CCCc2ccccc21)C1CCCCC1 (stereo partly drawn) [PROTAC 23, (2S,4S)-1-((S)-2-Cyclohexyl-2-((S)-2-(methylamino)propanamido)acetyl)-4-(3-(2-(2-(2-((2-(2,6-dioxopiperidin-3-yl)-1,3-dioxoisoindolin-4-yl)amino)ethoxy)ethoxy)ethoxy)phenoxy)-N-((R)-1,2,3,4-tetrahydronaphthalen-1-yl)pyrrolidine-2-carboxamide] | 0.05 | 95 | 3.9 | 4 |  | 85 | 3 | 11 | 
3 | CN[C@@H](C)C(=O)N[C@H](C(=O)N1C[C@@H](Oc2cccc(OCCOCCOCCOCCNc3cccc4c3C(=O)N(C3CCC(=O)NC3=O)C4=O)c2)C[C@H]1C(=O)N[C@@H]1CCCc2ccccc21)C1CCCCC1 (stereo partly drawn) [PROTAC 24, (2S,4S)-1-((S)-2-Cyclohexyl-2-((S)-2-(methylamino)propanamido)acetyl)-4-(3-(2-(2-(2-(2-((2-(2,6-dioxopiperidin-3-yl)-1,3-dioxoisoindolin-4-yl)amino)ethoxy)ethoxy)ethoxy)ethoxy)phenoxy)-N-((R)-1,2,3,4-tetrahydronaphthalen-1-yl)pyrrolidine-2-carboxamide] | 0.06 | 95 | 3.9 | 4 |  | 86 | 2 | 8 | 
4 | CN[C@@H](C)C(=O)N[C@H](C(=O)N1C[C@@H](Oc2cccc(OCCOCCCCCCOCCCCCCNc3cccc4c3C(=O)N(C3CCC(=O)N(C)C3=O)C4=O)c2)C[C@H]1C(=O)N[C@@H]1CCCc2ccccc21)C1CCCCC1 (stereo partly drawn) [PROTAC 28, (2S,4S)-1-((S)-2-Cyclohexyl-2-((S)-2-(methylamino)propanamido)acetyl)-4-(3-(2-((6-((6-((2-(1-methyl-2,6-dioxopiperidin-3-yl)-1,3-dioxoisoindolin-4-yl)amino)hexyl)oxy)hexyl)oxy)ethoxy)phenoxy)-N-((R)-1,2,3,4-tetrahydronaphthalen-1-yl)pyrrolidine-2-carboxamide] |  |  | 6 |  |  |  |  |  | IC50 (SUDHL4; Homo sapiens, SU-DHL-4, SI csv, head prints only the cell line, no quantity or unit, values parallel Table 1/S8, read-out: SUDHL4): 1000 nM; IC50 (HEL; Homo sapiens, SI csv, head prints only the cell line, no quantity or unit, values parallel Table 1/S8, read-out: HEL): 770 nM; IC50 (JJN3; Homo sapiens, JJN-3, SI csv, head prints only the cell line, no quantity or unit, values parallel Table 1/S8, read-out: JJN3): 900 nM; IC50 (RPMI-8826; SI csv, head prints only the cell line, no quantity or unit, values parallel Table 1/S8, read-out: RPMI-8826): 1010 nM; IC50 (DB; Homo sapiens, SI csv, head prints only the cell line, no quantity or unit, values parallel Table 1/S8, read-out: DB): 570 nM; IC50 (NCI-H929; Homo sapiens, SI csv, head prints only the cell line, no quantity or unit, values parallel Table 1/S8, read-out: NCI-H929): 1990 nM; XIAP degradation (in words) (XIAP; MM.1S cells, western blot, 0.1 or 1 μM): failed to degrade XIAP at 1 μM concentration; also recorded: only marginally degrades XIAP; IC50 (SUDHL6; Homo sapiens, SU-DHL-6, SI csv, head prints only the cell line, no quantity or unit, values parallel Table 1/S8, read-out: SUDHL6): 440 nM; remaining protein cIAP2 (cIAP2; MM.1S cells, 16 h, 1 μM): 32%; IC50 (MOLM13; Homo sapiens, MOLM-13, SI csv, head prints only the cell line, no quantity or unit, values parallel Table 1/S8, read-out: MOLM13): 630 nM; IC50 (K562; Homo sapiens, SI csv, head prints only the cell line, no quantity or unit, values parallel Table 1/S8, read-out: K562): 840 nM
5 | VH298 [reference compound] |  |  |  |  | did not affect the levels of IAPs; also recorded: has no effects on the investigated proteins |  |  |  | IC50 (SUDHL4; DLBCL cell line, 96 h, TNFα-challenged, read-out: IC50 cell viability SUDHL4): > 10000 nM; IC50 (HEL; AML cell line, 96 h, TNFα-challenged, read-out: IC50 cell viability HEL): > 10000 nM; IC50 (JJN3; MM cell line, 96 h, TNFα-challenged, read-out: IC50 cell viability JJN3): > 10000 nM; IC50 (RPMI-8826; MM cell line, 96 h, TNFα-challenged, read-out: IC50 cell viability RPMI-8826): > 10000 nM; IC50 (DB; DLBCL cell line, 96 h, TNFα-challenged, read-out: IC50 cell viability DB): > 10000 nM; IC50 (NCI-H929; MM cell line, 96 h, TNFα-challenged, read-out: IC50 cell viability NCI-H929): > 10000 nM; IC50 (SUDHL6; DLBCL cell line, 96 h, TNFα-challenged, read-out: IC50 cell viability SUDHL6): > 10000 nM; %remaining protein cIAP2 (cIAP2; MM.1S cells, 16 h treatment at 0.1 μM, normalized to loading control and DMSO): 81%; IC50 (MOLM13; AML cell line, 96 h, TNFα-challenged, read-out: IC50 cell viability MOLM13): > 10000 nM; IC50 (K562; AML cell line, 96 h, TNFα-challenged, read-out: IC50 cell viability K562): > 10000 nM
